Laboratory results: ChEMBL document CHEMBL3132859, “Synthesis and biological evaluation of a post-synthetically modified Trp-based diketopiperazine” (Medchemcomm, 2013)
pIC50: −log10 of the molar value. Active and inactive are the calls of the source. The calls are words filed in the database; no cut-off is given here.

Experiments:
Type in all cases: functional, cell-based
CAL-27 = assay: Antiproliferative activity against human CAL27 cells after 72 hrs by MTT assay
MDA-MB-231 = assay: Antiproliferative activity against human MDA-MB-231 cells after 72 hrs by MTT assay
A549 = assay: Antiproliferative activity against human A549 cells after 72 hrs by MTT assay
HeLa [1] = assay: Antiproliferative activity against human HeLa cells after 72 hrs by MTT assay
HT-29 [2] = assay: Antiproliferative activity against human HT-29 cells after 24 hrs by MTT assay
HeLa [3] = assay: Antiproliferative activity against human HeLa cells after 24 hrs by MTT assay
HT-29 [4] = assay: Antiproliferative activity against human HT-29 cells after 72 hrs by MTT assay
SK-BR-3 = assay: Antiproliferative activity against human SKBR3 cells after 72 hrs by MTT assay

| Compound | Activity (A549) | Activity (HT-29 [2]) | Activity (HT-29 [4]) | Activity (SK-BR-3) | also measured |
| --- | --- | --- | --- | --- | --- |
| O=C1N[C@H](Cc2c(-c3ccc(C(F)(F)F)cc3)[nH]c3ccccc23)C(=O)N2CCC[C@H]12 | Active | – | – | – | Activity (CAL-27): Active; Activity (MDA-MB-231): Active |
| O=C1N[C@@H](Cc2c[nH]c3ccccc23)C(=O)N2CCC[C@@H]12 [BREVIANAMIDE F] | – | – | – | – | pIC50 (HeLa [1]): < 3.70 |
| COc1ccccc1-c1[nH]c2ccccc2c1C[C@@H]1NC(=O)[C@@H]2CCCN2C1=O | – | Active | – | – | Activity (HeLa [3]): Active |
| Cc1ccc(-c2[nH]c3ccccc3c2C[C@@H]2NC(=O)[C@@H]3CCCN3C2=O)cc1 | Active | – | Active | Active | – |
| O=C1N[C@@H](Cc2c(-c3cc(C(F)(F)F)cc(C(F)(F)F)c3)[nH]c3ccccc23)C(=O)N2CCC[C@@H]12 | – | Active | – | – | – |
| COC(=O)c1ccc(-c2[nH]c3ccccc3c2C[C@@H]2NC(=O)[C@@H]3CCCN3C2=O)cc1 | Active | – | Active | Active | – |
| O=C1N[C@@H](Cc2c(-c3ccc(C(F)(F)F)cc3)[nH]c3ccccc23)C(=O)N2CCC[C@@H]12 | Active | – | Active | Active | Activity (CAL-27): Active; Activity (MDA-MB-231): Active; pIC50 (HeLa [1]): 4.59 |
| COc1ccc(-c2[nH]c3ccccc3c2C[C@@H]2NC(=O)[C@@H]3CCCN3C2=O)cc1 | Active | – | Active | Active | – |
| O=C1N[C@@H](Cc2c(-c3ccccc3Cl)[nH]c3ccccc23)C(=O)N2CCC[C@@H]12 | – | Active | – | – | Activity (HeLa [3]): Active |
| O=C1N[C@@H](Cc2c(-c3ccccc3C(F)(F)F)[nH]c3ccccc23)C(=O)N2CCC[C@@H]12 | – | Active | – | – | Activity (HeLa [3]): Active |
| O=C1N[C@@H](Cc2c(-c3ccc(Cl)cc3)[nH]c3ccccc23)C(=O)N2CCC[C@@H]12 | Active | – | Active | Active | pIC50 (HeLa [1]): 4.28 |
